From ChEMBL document CHEMBL5543066, “Dual COX-2/15-LOX inhibitors: A new avenue in the prevention of cancer” (Eur J Med Chem, 2023)
One block for each compound: values may come before it.

Experiments:
[1] = Inhibition of soybean lipoxygenase; set-up: species or system Glycine max
[2] = molecular target: T1, Prostaglandin G/H synthase 1 (Ovis aries, UniProt P05979); experiment: Inhibition of ovine COX-1
T1 sequence (P05979 whole entry): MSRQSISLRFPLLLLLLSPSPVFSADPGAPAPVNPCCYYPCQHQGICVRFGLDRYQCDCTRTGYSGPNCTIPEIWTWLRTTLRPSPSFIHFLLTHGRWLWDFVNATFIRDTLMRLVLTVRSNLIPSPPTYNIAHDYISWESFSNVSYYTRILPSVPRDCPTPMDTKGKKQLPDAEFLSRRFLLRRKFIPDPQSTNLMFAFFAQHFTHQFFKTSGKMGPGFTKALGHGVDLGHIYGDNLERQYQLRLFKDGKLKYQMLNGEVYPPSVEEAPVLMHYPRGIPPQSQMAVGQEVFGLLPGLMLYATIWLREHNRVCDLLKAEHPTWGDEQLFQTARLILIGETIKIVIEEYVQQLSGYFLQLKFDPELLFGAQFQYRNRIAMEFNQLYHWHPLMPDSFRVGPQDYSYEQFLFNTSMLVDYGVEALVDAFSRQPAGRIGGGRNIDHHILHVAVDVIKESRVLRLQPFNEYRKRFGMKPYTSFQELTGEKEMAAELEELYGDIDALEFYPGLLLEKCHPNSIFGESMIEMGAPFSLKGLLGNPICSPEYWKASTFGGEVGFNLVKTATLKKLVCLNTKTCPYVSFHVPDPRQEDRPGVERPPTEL

[3] = molecular target: T2, Prostaglandin G/H synthase 2 (Homo sapiens, UniProt P35354); experiment: Inhibition of human COX-2
T2 sequence (P35354 whole entry): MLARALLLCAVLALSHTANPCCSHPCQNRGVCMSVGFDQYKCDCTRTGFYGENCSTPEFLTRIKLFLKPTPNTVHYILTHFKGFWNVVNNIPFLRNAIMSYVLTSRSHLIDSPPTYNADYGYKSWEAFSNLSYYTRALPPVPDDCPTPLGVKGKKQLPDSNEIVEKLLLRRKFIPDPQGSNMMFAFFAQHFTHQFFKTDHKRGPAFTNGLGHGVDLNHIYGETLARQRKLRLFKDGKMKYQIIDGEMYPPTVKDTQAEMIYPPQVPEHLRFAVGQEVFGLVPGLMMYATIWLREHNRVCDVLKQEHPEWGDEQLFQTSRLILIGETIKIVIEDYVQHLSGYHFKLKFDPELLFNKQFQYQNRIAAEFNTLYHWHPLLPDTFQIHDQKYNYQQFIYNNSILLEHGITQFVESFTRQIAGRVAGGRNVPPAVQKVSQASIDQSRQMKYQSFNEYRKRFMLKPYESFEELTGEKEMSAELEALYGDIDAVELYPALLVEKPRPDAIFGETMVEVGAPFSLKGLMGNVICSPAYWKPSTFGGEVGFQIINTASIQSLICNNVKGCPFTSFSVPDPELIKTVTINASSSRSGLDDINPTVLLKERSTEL

[4] = Selectivity ratio of IC50 for ovine COX-1 to IC50 for human COX-2
[5] = molecular target: T3, Polyunsaturated fatty acid 5-lipoxygenase (Homo sapiens, UniProt P09917); experiment: Inhibition of 5-LOX in human PMNL cells; format: cell-based
T3 sequence (P09917 whole entry): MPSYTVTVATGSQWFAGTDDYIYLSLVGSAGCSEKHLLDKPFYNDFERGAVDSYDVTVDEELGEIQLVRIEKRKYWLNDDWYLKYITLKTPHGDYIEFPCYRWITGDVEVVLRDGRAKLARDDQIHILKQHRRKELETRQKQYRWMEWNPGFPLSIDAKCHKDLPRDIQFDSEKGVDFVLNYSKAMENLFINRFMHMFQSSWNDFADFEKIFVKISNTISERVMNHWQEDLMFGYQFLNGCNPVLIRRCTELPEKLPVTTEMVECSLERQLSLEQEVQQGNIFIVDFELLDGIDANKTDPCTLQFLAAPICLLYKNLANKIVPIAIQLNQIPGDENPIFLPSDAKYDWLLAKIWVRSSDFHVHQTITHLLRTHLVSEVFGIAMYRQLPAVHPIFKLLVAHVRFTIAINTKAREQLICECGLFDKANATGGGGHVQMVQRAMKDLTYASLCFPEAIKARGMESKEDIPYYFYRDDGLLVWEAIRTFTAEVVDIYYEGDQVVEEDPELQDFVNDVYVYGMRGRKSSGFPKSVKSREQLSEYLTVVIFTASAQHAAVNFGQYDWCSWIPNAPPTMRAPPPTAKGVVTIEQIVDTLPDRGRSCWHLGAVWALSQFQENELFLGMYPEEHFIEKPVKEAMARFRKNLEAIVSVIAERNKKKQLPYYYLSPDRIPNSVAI

[6] = molecular target: T2, Prostaglandin G/H synthase 2; experiment: Inhibition of COX-2 (unknown origin) by Enzyme immune assay
Rattus norvegicus [7] = experiment: Anti-inflammatory activity against carrageenan-induced paw edema in Wistar albino rat assessed as inhibition of paw edema at 50 mg/kg, sc administered for 14 days relative to control; format: functional; set-up: scale not given: the % may be the effect or the level left; details: time 14 day
Rattus norvegicus [8] = experiment: Anti-inflammatory activity against carrageenan-induced paw edema in Wistar albino rat assessed as inhibition of paw edema; format: functional
RAW264.7 [9] = experiment: Anti-inflammatory activity against mouse RAW264.7 cells assessed as inhibition of LPS-induced IL-6 production at 10 uM pre-incubated with LPS-stimulation for 2 hrs followed by compound addition and measured after 22 hrs by ELISA analysis relative to control; format: functional; set-up: scale not given: the % may be the effect or the level left; details: time 24 hrs
RAW264.7 [10] = experiment: Anti-inflammatory activity against mouse RAW264.7 cells assessed as inhibition of LPS-induced TNF-alpha production at 10 uM pre-incubated with LPS-stimulation for 2 hrs followed by compound addition and measured after 22 hrs by ELISA analysis relative to control; format: functional; set-up: scale not given: the % may be the effect or the level left; details: time 24 hrs
[11] = Inhibition of human recombinant sPLA2-V
Carbonic anhydrase 2 = Carbonic anhydrase 2 (Homo sapiens, UniProt P00918); experiment: Inhibition of recombinant human carbonic anhydrase II incubated for 30 mins by spectrophotometric analysis

IC50 [1]: 1.02 µM
IC50 [2]: 9.85 µM
IC50 [3]: 1 µM
Ratio IC50 [4]: 9.85
IC50 [5]: 0.32 µM
SMILES: O=C1c2ccccc2C(=O)N1c1nc2cc([N+](=O)[O-])ccc2n1Cc1cccc(-c2ccccc2)c1

IC50 [6]: 1.11 µM
IC50 [11]: 1 µM
SMILES: COc1ccnc(Nc2nn3c(SC)c(C#N)c(O)nc3c2C#N)c1
Activity (Rattus norvegicus [7]): 46%
ED50 (Rattus norvegicus [8]): 35 mg/kg
Activity (RAW264.7 [9]): 80%
Activity (RAW264.7 [10]): 89%

IC50 (Carbonic anhydrase 2): 0.11 µM
SMILES: NS(=O)(=O)c1ccc(NCCC(=O)N/N=C/c2ccc(-c3ccc(Br)s3)cc2)cc1
